From ChEMBL document CHEMBL1147324, “The isolation and structure of modified bioactive nucleosides from Jaspis johnstoni” (J Nat Prod, 1989) come the findings set out here.

In brackets after ≈: the same amount, converted by molar mass.

Assay [1] deals with L1210. In words: Antitumor activity against mouse L1210 cells implanted in mouse assessed as increase in survival. The class given is functional.
Assay [2] relates to L1210. In words: Cytotoxicity against mouse L1210 cells. The assay is classed as functional, cell-based.
The test system of the next assay is Candida albicans. In words: Antifungal activity against Candida albicans at 1.25 mg/6.4 mm disk. The assay is classed as functional.

A word on the IC50: it is the concentration that gives 50% inhibition. Lower therefore signals higher potency. With `COC(=O)c1cn([C@@H]2O[C@H](CO)[C@@H](O)[C@H]2O)c2ncnc(N)c12`, the Activity in the assay with L1210 [1] amounted to 39%. Further, the IC50 in the assay on L1210 [2] is 0.027 µg/mL (≈ 0.0833 µM).

In the assay on L1210 [2], `N#Cc1cn([C@@H]2O[C@H](CO)[C@@H](O)[C@H]2O)c2ncnc(N)c12` [TOYOCAMYCIN] yielded an IC50 of 0.0026 µg/mL (≈ 0.00893 µM). For the same molecule, in the assay with Candida albicans, the “inhibition zone (IZ)” value came to 13 mm.
